These results are taken from ChEMBL document CHEMBL1201862, “PubChem BioAssay data set” (2004).

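Results reflect a 48-hour exposure of cells in 96-well plates to compound at five concentrations. The concentration for 50% growth inhibition is given as GI50.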 Active and inactive are the calls of the source. Rule as the data show it: active = GI50 up to about 1.1 µM and inactive = higher. *1 amine or outer side, *2 acyl side, *3 side chain or, on linkers, in order; H or OH if unused. Where a SMILES comes first, the peptide text is derived from it. Bridges are numbered along the chain shown (N, C = ends). Roman numbers before positions name the chains, in order. [ ]: non-standard residue; d: D form. Actinocin(1to9) = Cc1c2oc3c(C)ccc(C(=O)[*:2])c3nc-2c(C(=O)[*:1])c(N)c1=O; NMeV = CN[CH](C(=O)O)C(C)C; Sar = CNCC(=O)O

Test systems include NCI-H522; MOLT-4; Hs-578T; UACC-62; RPMI-8226; SF-539; COLO 205; UACC-257; MDA-MB-435; SK-MEL-2; SF-295; SW-620; OVCAR-8; SNB-75; SK-MEL-5; HL-60; NCI/ADR-RES; OVCAR-4; KM12; M14.
Experiment in all cases: NCI tumour cell line growth inhibition, 48 h

With `O=C(O)C1C(C(=O)Nc2ccc3c(c2)Cc2ccccc2-3)C2(Cl)C(Cl)=C(Cl)C1(Cl)C2(Cl)Cl` (stereo not given), the GI50 with NCI-H522 is 18.6 µM (inactive); in the experiment on MOLT-4 it was 11.6 µM (inactive); in the experiment with Hs-578T, 19.9 µM (inactive); with UACC-62, 16.1 µM (inactive); with RPMI-8226, 14.6 µM (inactive); with SF-539, 13.2 µM (inactive). The GI50 was 17.6 µM (inactive) in the experiment with COLO 205; 20.6 µM (inactive) with UACC-257; 29.1 µM (inactive) with MDA-MB-435; 19.1 µM (inactive) in the experiment with SK-MEL-2; 39.1 µM (inactive) in the experiment on SF-295; 25.6 µM (inactive) in the experiment on SW-620. For the same compound, the GI50 in the experiment on OVCAR-8 is 20.3 µM (inactive); with SNB-75, 26.2 µM (inactive); with SK-MEL-5, 14.2 µM (inactive); with HL-60, 26.6 µM (inactive); with NCI/ADR-RES, 36.6 µM (inactive); with OVCAR-4, 27.7 µM (inactive). The results for the GI50 in the experiment on KM12 and in the experiment on M14 were 18.7 µM (inactive) and 20.4 µM (inactive), respectively.
In the case of `CN(C)/C=N/c1ccc2nonc2c1`, the GI50 in the experiment on NCI-H522, in the experiment with MOLT-4, in the experiment with Hs-578T, in the experiment with UACC-62, in the experiment with RPMI-8226 and in the experiment on SF-539 was > 100 µM (inactive) each time. Besides, the GI50 in the experiment on COLO 205, in the experiment on UACC-257, with MDA-MB-435, in the experiment on SK-MEL-2, in the experiment on SF-295 and in the experiment on SW-620 was > 100 µM (inactive) throughout. Besides, the GI50 in the experiment on OVCAR-8, in the experiment with SNB-75, in the experiment on SK-MEL-5, in the experiment with HL-60, in the experiment on NCI/ADR-RES and with OVCAR-4 was > 100 µM (inactive) in each case. Also, the GI50 in the experiment on KM12 and with M14 was > 100 µM (inactive) in each case.
With `CCC(C)C1NC(=O)C(NC(=O)c2c3nc4c(C(=O)NC5C(=O)NC(C(C)C)C(=O)N6CCCC6C(=O)N(C)CC(=O)N(C)C(C(C)C)C(=O)OC5C)ccc(C)c4oc-3c(C)c(=O)c2N)C(C)OC(=O)C(C(C)C)N(C)C(=O)CN(C)C(=O)C2CCCN2C1=O` (stereo not given) (I: TIP[Sar][NMeV] / II: TVP[Sar][NMeV]; ester I:1-I:C, II:1-II:C; linker I:N-II:N via Actinocin(1to9); configuration not given here), the GI50 in the experiment with NCI-H522 was < 0.0001 µM (active); in the experiment on MOLT-4 it was < 0.0001 µM (active); in the experiment on Hs-578T, 0.00546 µM (active); with UACC-62 it was 0.00589 µM (active); with RPMI-8226, < 0.0001 µM (active); with SF-539, 0.00165 µM (active). Further, the GI50 in the experiment on COLO 205 is < 0.0001 µM (active); with UACC-257 it was 0.00119 µM (active); in the experiment on MDA-MB-435, 0.000513 µM (active); with SK-MEL-2, 0.00172 µM (active); in the experiment on SF-295, 0.000353 µM (active); in the experiment on SW-620 it was < 0.0001 µM (active). In addition, the GI50 with OVCAR-8 was 0.000443 µM (active); in the experiment on SNB-75, 0.00762 µM (active); in the experiment on SK-MEL-5, < 0.0001 µM (active); in the experiment with HL-60 it was 0.000513 µM (active); with NCI/ADR-RES it was 0.156 µM (active); in the experiment with OVCAR-4, 0.0102 µM (active). The figures for the GI50 with KM12 and in the experiment with M14 were 0.00016 µM (active) and 0.00269 µM (active), respectively.
Take `Brc1cccc(Nc2nc(-c3cccs3)nc3ccc(Br)cc23)c1`: the GI50 in the experiment on NCI-H522 is 19 µM (inactive); in the experiment on MOLT-4 it was 26.6 µM (inactive); in the experiment on Hs-578T it was 38.8 µM (inactive); in the experiment on UACC-62, 17.8 µM (inactive); in the experiment with RPMI-8226, 44.9 µM (inactive); in the experiment on SF-539, 31.8 µM (inactive). Besides, the GI50 in the experiment on COLO 205 is 33 µM (inactive); in the experiment with UACC-257 it was 26.6 µM (inactive); in the experiment with MDA-MB-435 it was 16.6 µM (inactive); with SK-MEL-2, 32.1 µM (inactive); in the experiment with SF-295, 19.9 µM (inactive); in the experiment on SW-620 it was 26.9 µM (inactive). Also, the GI50 is 47 µM (inactive) in the experiment on OVCAR-8; 41.2 µM (inactive) in the experiment with SNB-75; 14 µM (inactive) in the experiment with SK-MEL-5; 1.28 µM (inactive) in the experiment on HL-60; 30.7 µM (inactive) in the experiment with NCI/ADR-RES; 27.8 µM (inactive) in the experiment with OVCAR-4. Also, the results for the GI50 in the experiment on KM12 and in the experiment with M14 were 18 µM (inactive) and 25.5 µM (inactive), respectively.
Consider `N=C(N)NCCN1CCCCCc2ccccc21`, for which the GI50 was > 10 µM (inactive) in the experiment with NCI-H522; > 10 µM (inactive) with MOLT-4; 8.05 µM (inactive) in the experiment on Hs-578T; 9.25 µM (inactive) in the experiment on UACC-62; > 10 µM (inactive) with RPMI-8226; > 10 µM (inactive) with SF-539. Moreover, the GI50 in the experiment with COLO 205, with UACC-257, with MDA-MB-435, with SK-MEL-2, with SF-295 and with SW-620 was > 10 µM (inactive) each time. Also, the GI50 was > 10 µM (inactive) in the experiment on OVCAR-8; 3.48 µM (inactive) in the experiment with SNB-75; > 10 µM (inactive) with SK-MEL-5; > 10 µM (inactive) in the experiment with HL-60; > 10 µM (inactive) in the experiment with NCI/ADR-RES; > 10 µM (inactive) in the experiment with OVCAR-4. Also, the GI50 in the experiment on KM12 and with M14 was > 10 µM (inactive) each time.
For `C=CC1(C)OC2(CCN(C(=O)OCC)CC2)OC1C` (stereo not given), the GI50 in the experiment with NCI-H522 is > 100 µM (inactive); in the experiment with MOLT-4, 34.8 µM (inactive); in the experiment with Hs-578T, > 100 µM (inactive); in the experiment on UACC-62, > 100 µM (inactive); in the experiment with RPMI-8226 it was > 100 µM (inactive); in the experiment on SF-539, > 100 µM (inactive). Moreover, the GI50 in the experiment with COLO 205, in the experiment with UACC-257, in the experiment on MDA-MB-435, with SK-MEL-2, in the experiment on SF-295 and with SW-620 was > 100 µM (inactive) in each case. Also, the GI50 in the experiment with OVCAR-8, in the experiment with SNB-75, in the experiment on SK-MEL-5, in the experiment with HL-60, in the experiment with NCI/ADR-RES and with OVCAR-4 was > 100 µM (inactive) each time. Besides, the GI50 with KM12 and in the experiment on M14 was > 100 µM (inactive) throughout.
For `CCOC(=O)c1nc2cc(C(F)(F)F)ccc2nc1Oc1ccc(OC)cc1`, the GI50 was 72.4 µM (inactive) with NCI-H522; 45.5 µM (inactive) in the experiment with MOLT-4; > 100 µM (inactive) with Hs-578T; > 100 µM (inactive) in the experiment on UACC-62; 45.4 µM (inactive) in the experiment with RPMI-8226; > 100 µM (inactive) in the experiment on SF-539. Also, the GI50 in the experiment with COLO 205, in the experiment with UACC-257, in the experiment with MDA-MB-435, with SK-MEL-2, with SF-295 and in the experiment on SW-620 was > 100 µM (inactive) each time. The GI50 with OVCAR-8, in the experiment with SNB-75, in the experiment on SK-MEL-5, with HL-60, in the experiment with NCI/ADR-RES and in the experiment on OVCAR-4 was > 100 µM (inactive) each time. The GI50 in the experiment with KM12 and in the experiment with M14 was > 100 µM (inactive) each time.
Take `COc1cc(S(=O)(=O)Nc2ccc(-c3csc(N4C(=O)CSC4c4ccccc4)n3)cc2)ccc1Cl` (stereo not given): the GI50 with NCI-H522 was 34.4 µM (inactive); with MOLT-4 it was 25.6 µM (inactive); in the experiment on Hs-578T, 55.6 µM (inactive); in the experiment with UACC-62 it was 13.2 µM (inactive); with RPMI-8226, 24.4 µM (inactive); in the experiment with SF-539, 80.7 µM (inactive). The GI50 in the experiment with COLO 205 was 35.6 µM (inactive); in the experiment on UACC-257 it was 40.9 µM (inactive); in the experiment on MDA-MB-435, 43.1 µM (inactive); with SK-MEL-2, 37.2 µM (inactive); in the experiment with SF-295 it was 96.6 µM (inactive); in the experiment on SW-620, 42.4 µM (inactive). For the same compound, the GI50 in the experiment with OVCAR-8 is > 100 µM (inactive); with SNB-75, 67.3 µM (inactive); in the experiment with SK-MEL-5 it was 92.9 µM (inactive); with HL-60, 20.8 µM (inactive); in the experiment on NCI/ADR-RES, > 100 µM (inactive); in the experiment with OVCAR-4 it was 29.9 µM (inactive). Further, the GI50 was 30.5 µM (inactive) with KM12 and 43.8 µM (inactive) with M14.
As to `Cc1ccc(N2C(N)=C(C#N)C(C#N)(C#N)C2c2ccccc2)cc1` (stereo not given), the GI50 is 5.42 µM (inactive) in the experiment with NCI-H522; 2.31 µM (inactive) with MOLT-4; 21 µM (inactive) in the experiment on Hs-578T; 11.4 µM (inactive) in the experiment with UACC-62; 11.4 µM (inactive) in the experiment with RPMI-8226; 14.2 µM (inactive) in the experiment on SF-539. The GI50 with COLO 205 was 10.2 µM (inactive); in the experiment with UACC-257, 15.6 µM (inactive); in the experiment with MDA-MB-435 it was 4.03 µM (inactive); with SK-MEL-2 it was 13.6 µM (inactive); in the experiment with SF-295, 18.9 µM (inactive); with SW-620, 4.32 µM (inactive). Moreover, the GI50 is 20 µM (inactive) with OVCAR-8; 13.2 µM (inactive) in the experiment on SNB-75; 8.63 µM (inactive) with SK-MEL-5; 2.75 µM (inactive) with HL-60; 17 µM (inactive) in the experiment with NCI/ADR-RES; 13.4 µM (inactive) in the experiment with OVCAR-4. For the same compound, the GI50 in the experiment with KM12 was 17.2 µM (inactive); in the experiment on M14 it was 12.3 µM (inactive).
As to `O=[N+]([O-])c1nccn1CC(O)CN1CCCCC1` (stereo not given) [PIMONIDAZOLE], the GI50 with NCI-H522, in the experiment on MOLT-4, in the experiment on Hs-578T, in the experiment on UACC-62, in the experiment with RPMI-8226 and with SF-539 was > 100 µM (inactive) each time. Also, the GI50 with COLO 205, in the experiment on UACC-257, with MDA-MB-435, in the experiment on SK-MEL-2, in the experiment on SF-295 and in the experiment with SW-620 was > 100 µM (inactive) throughout. Moreover, the GI50 in the experiment with OVCAR-8, with SNB-75, in the experiment with SK-MEL-5, in the experiment with HL-60, with NCI/ADR-RES and in the experiment with OVCAR-4 was > 100 µM (inactive) in each case. The GI50 in the experiment on KM12 and in the experiment on M14 was > 100 µM (inactive) each time.
